# PubChem BioAssay (NCI)
#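 48-hour exposure; five concentrations; linearly interpolated endpoints. TGI is the concentration that stops growth completely.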
# Assays:
# Experiment in all cases: inhibition of tumour cell growth, NCI panel, 48 h
# T-47D breast = test system: T-47D breast
# HCC-2998 colon = test system: HCC-2998 colon
# SF-268 CNS = test system: SF-268 CNS
# 786-0 renal = test system: 786-0 renal
# M14 melanoma = test system: M14 melanoma
# A549 NSCLC = test system: A549 NSCLC
# MOLT-4 leukemia = test system: MOLT-4 leukemia
# MALME-3M melanoma = test system: MALME-3M melanoma
# OVCAR-3 ovarian = test system: OVCAR-3 ovarian
# SW-620 colon = test system: SW-620 colon
# NCI/ADR-RES ovarian = test system: NCI/ADR-RES ovarian
# CCRF-CEM leukemia = test system: CCRF-CEM leukemia
# OVCAR-4 ovarian = test system: OVCAR-4 ovarian
# SK-MEL-5 melanoma = test system: SK-MEL-5 melanoma
# HT29 colon = test system: HT29 colon
# U251 CNS = test system: U251 CNS
# CAKI-1 renal = test system: CAKI-1 renal
# ACHN renal = test system: ACHN renal
# RPMI-8226 leukemia = test system: RPMI-8226 leukemia
# HOP-62 NSCLC = test system: HOP-62 NSCLC
# PC-3 prostate = test system: PC-3 prostate
# LOX IMVI melanoma = test system: LOX IMVI melanoma
# HCT-116 colon = test system: HCT-116 colon
# NCI-H460 lung = test system: NCI-H460 lung
# HOP-92 NSCLC = test system: HOP-92 NSCLC
# SR leukemia = test system: SR leukemia
# KM12 colon = test system: KM12 colon
# SK-OV-3 ovarian = test system: SK-OV-3 ovarian
# SF-295 CNS = test system: SF-295 CNS
# HCT-15 colon = test system: HCT-15 colon
# RXF 393 renal = test system: RXF 393 renal
# MDA-N = test system: MDA-N
# MDA-MB-435 = test system: MDA-MB-435
# TK-10 renal = test system: TK-10 renal
# OVCAR-5 ovarian = test system: OVCAR-5 ovarian
# K-562 leukemia = test system: K-562 leukemia
# UO-31 renal = test system: UO-31 renal
# OVCAR-8 ovarian = test system: OVCAR-8 ovarian
# EKVX NSCLC = test system: EKVX NSCLC
# NCI-H522 lung = test system: NCI-H522 lung
# COLO 205 colon = test system: COLO 205 colon
# HL-60(TB) leukemia = test system: HL-60(TB) leukemia
# MCF7 breast = test system: MCF7 breast
# BT-549 breast = test system: BT-549 breast
# SF-539 CNS = test system: SF-539 CNS
# DU-145 prostate = test system: DU-145 prostate
# NCI-H226 lung = test system: NCI-H226 lung
# SNB-75 CNS = test system: SNB-75 CNS
# UACC-62 melanoma = test system: UACC-62 melanoma
# SNB-19 CNS = test system: SNB-19 CNS
# SN12C renal = test system: SN12C renal
# NCI-H23 lung = test system: NCI-H23 lung
# SK-MEL-28 melanoma = test system: SK-MEL-28 melanoma
# IGROV1 ovarian = test system: IGROV1 ovarian
# SK-MEL-2 melanoma = test system: SK-MEL-2 melanoma
# A498 renal = test system: A498 renal
# UACC-257 melanoma = test system: UACC-257 melanoma
# HS 578T breast = test system: HS 578T breast
smiles,measurement,setting,value
O=c1[nH]ncc2[nH]c3c4ccccc4ccc3c12,TGI,T-47D breast,> 100 µM
same,TGI,HCC-2998 colon,> 100 µM
same,TGI,SF-268 CNS,> 100 µM
same,TGI,786-0 renal,> 100 µM
same,TGI,M14 melanoma,> 100 µM
same,TGI,A549 NSCLC,65.6 µM
same,TGI,MOLT-4 leukemia,> 100 µM
same,TGI,MALME-3M melanoma,> 100 µM
same,TGI,OVCAR-3 ovarian,> 100 µM
same,TGI,SW-620 colon,> 100 µM
same,TGI,NCI/ADR-RES ovarian,> 100 µM
same,TGI,CCRF-CEM leukemia,> 100 µM
same,TGI,OVCAR-4 ovarian,> 100 µM
same,TGI,SK-MEL-5 melanoma,> 100 µM
same,TGI,HT29 colon,> 100 µM
same,TGI,U251 CNS,90.7 µM
same,TGI,CAKI-1 renal,> 100 µM
same,TGI,ACHN renal,> 100 µM
same,TGI,RPMI-8226 leukemia,> 100 µM
same,TGI,HOP-62 NSCLC,> 100 µM
same,TGI,PC-3 prostate,> 100 µM
same,TGI,LOX IMVI melanoma,> 100 µM
same,TGI,HCT-116 colon,> 100 µM
same,TGI,NCI-H460 lung,> 100 µM
same,TGI,HOP-92 NSCLC,87.1 µM
same,TGI,SR leukemia,> 100 µM
same,TGI,KM12 colon,> 100 µM
same,TGI,SK-OV-3 ovarian,> 100 µM
same,TGI,SF-295 CNS,84.1 µM
same,TGI,HCT-15 colon,39.6 µM
same,TGI,RXF 393 renal,> 100 µM
same,TGI,MDA-N,> 100 µM
same,TGI,MDA-MB-435,62.4 µM
same,TGI,TK-10 renal,> 100 µM
same,TGI,OVCAR-5 ovarian,> 100 µM
same,TGI,K-562 leukemia,> 100 µM
same,TGI,UO-31 renal,> 100 µM
same,TGI,OVCAR-8 ovarian,> 100 µM
same,TGI,EKVX NSCLC,> 100 µM
same,TGI,NCI-H522 lung,66.6 µM
same,TGI,COLO 205 colon,96.1 µM
same,TGI,HL-60(TB) leukemia,> 100 µM
same,TGI,MCF7 breast,54.9 µM
same,TGI,BT-549 breast,> 100 µM
same,TGI,SF-539 CNS,> 100 µM
same,TGI,DU-145 prostate,> 100 µM
CCCCc1ccc(-n2sc3ncc(-c4ccccc4)cc3c2=O)cc1,TGI,T-47D breast,69.5 µM
same,TGI,HCC-2998 colon,> 100 µM
same,TGI,786-0 renal,> 100 µM
same,TGI,M14 melanoma,> 100 µM
same,TGI,A549 NSCLC,> 100 µM
same,TGI,MOLT-4 leukemia,> 100 µM
same,TGI,NCI-H226 lung,> 100 µM
same,TGI,OVCAR-3 ovarian,> 100 µM
same,TGI,SNB-75 CNS,> 100 µM
same,TGI,SW-620 colon,> 100 µM
same,TGI,NCI/ADR-RES ovarian,> 100 µM
same,TGI,CCRF-CEM leukemia,> 100 µM
same,TGI,OVCAR-4 ovarian,> 100 µM
same,TGI,SK-MEL-5 melanoma,> 100 µM
same,TGI,U251 CNS,> 100 µM
same,TGI,UACC-62 melanoma,> 100 µM
same,TGI,CAKI-1 renal,> 100 µM
same,TGI,ACHN renal,> 100 µM
same,TGI,RPMI-8226 leukemia,> 100 µM
same,TGI,HOP-62 NSCLC,> 100 µM
same,TGI,PC-3 prostate,> 100 µM
same,TGI,LOX IMVI melanoma,> 100 µM
same,TGI,HCT-116 colon,> 100 µM
same,TGI,NCI-H460 lung,> 100 µM
same,TGI,HOP-92 NSCLC,> 100 µM
same,TGI,SNB-19 CNS,> 100 µM
same,TGI,SN12C renal,> 100 µM
same,TGI,SR leukemia,> 100 µM
same,TGI,KM12 colon,> 100 µM
same,TGI,SK-OV-3 ovarian,> 100 µM
same,TGI,SF-295 CNS,> 100 µM
same,TGI,HCT-15 colon,> 100 µM
same,TGI,RXF 393 renal,> 100 µM
same,TGI,MDA-N,> 100 µM
same,TGI,NCI-H23 lung,> 100 µM
same,TGI,MDA-MB-435,> 100 µM
same,TGI,SK-MEL-28 melanoma,> 100 µM
same,TGI,TK-10 renal,> 100 µM
same,TGI,OVCAR-5 ovarian,> 100 µM
same,TGI,K-562 leukemia,> 100 µM
same,TGI,UO-31 renal,> 100 µM
same,TGI,OVCAR-8 ovarian,> 100 µM
same,TGI,EKVX NSCLC,> 100 µM
same,TGI,COLO 205 colon,> 100 µM
same,TGI,HL-60(TB) leukemia,> 100 µM
same,TGI,MCF7 breast,> 100 µM
same,TGI,IGROV1 ovarian,> 100 µM
same,TGI,BT-549 breast,> 100 µM
same,TGI,SK-MEL-2 melanoma,> 100 µM
same,TGI,A498 renal,> 100 µM
same,TGI,DU-145 prostate,> 100 µM
COC(=O)CCC1(CCC(=O)OC)CCCCCCC(CCC(=O)OC)(CCC(=O)OC)C(=O)C1=O,TGI,T-47D breast,> 100 µM
same,TGI,HCC-2998 colon,> 100 µM
same,TGI,SF-268 CNS,> 100 µM
same,TGI,786-0 renal,> 100 µM
same,TGI,M14 melanoma,> 100 µM
same,TGI,A549 NSCLC,> 100 µM
same,TGI,NCI-H226 lung,> 100 µM
same,TGI,MALME-3M melanoma,> 100 µM
same,TGI,OVCAR-3 ovarian,> 100 µM
same,TGI,SNB-75 CNS,> 100 µM
same,TGI,NCI/ADR-RES ovarian,> 100 µM
same,TGI,SK-MEL-5 melanoma,> 100 µM
same,TGI,UACC-257 melanoma,> 100 µM
same,TGI,HT29 colon,> 100 µM
same,TGI,U251 CNS,> 100 µM
same,TGI,UACC-62 melanoma,> 100 µM
same,TGI,CAKI-1 renal,> 100 µM
same,TGI,ACHN renal,> 100 µM
same,TGI,RPMI-8226 leukemia,> 100 µM
same,TGI,HOP-62 NSCLC,> 100 µM
same,TGI,PC-3 prostate,> 100 µM
same,TGI,LOX IMVI melanoma,> 100 µM
same,TGI,HCT-116 colon,> 100 µM
same,TGI,NCI-H460 lung,> 100 µM
same,TGI,HOP-92 NSCLC,> 100 µM
same,TGI,SNB-19 CNS,> 100 µM
same,TGI,SN12C renal,> 100 µM
same,TGI,KM12 colon,> 100 µM
same,TGI,SK-OV-3 ovarian,> 100 µM
same,TGI,HS 578T breast,> 100 µM
same,TGI,SF-295 CNS,> 100 µM
same,TGI,HCT-15 colon,> 100 µM
same,TGI,RXF 393 renal,> 100 µM
same,TGI,MDA-N,> 100 µM
same,TGI,NCI-H23 lung,> 100 µM
same,TGI,MDA-MB-435,> 100 µM
same,TGI,SK-MEL-28 melanoma,> 100 µM
same,TGI,TK-10 renal,> 100 µM
same,TGI,OVCAR-5 ovarian,> 100 µM
same,TGI,K-562 leukemia,> 100 µM
same,TGI,UO-31 renal,76.7 µM
same,TGI,OVCAR-8 ovarian,> 100 µM
same,TGI,EKVX NSCLC,> 100 µM
same,TGI,NCI-H522 lung,> 100 µM
same,TGI,COLO 205 colon,> 100 µM
same,TGI,MCF7 breast,> 100 µM
same,TGI,IGROV1 ovarian,> 100 µM
same,TGI,SF-539 CNS,> 100 µM
same,TGI,SK-MEL-2 melanoma,> 100 µM
same,TGI,A498 renal,> 100 µM
same,TGI,DU-145 prostate,> 100 µM
Cc1cccc2oc3c(c(=O)c12)CC(O)C(C)(C)O3 (stereo not drawn),TGI,T-47D breast,> 100 µM
same,TGI,HCC-2998 colon,> 100 µM
same,TGI,SF-268 CNS,> 100 µM
same,TGI,786-0 renal,> 100 µM
same,TGI,M14 melanoma,> 100 µM
same,TGI,A549 NSCLC,> 100 µM
same,TGI,MOLT-4 leukemia,83.2 µM
same,TGI,NCI-H226 lung,> 100 µM
same,TGI,MALME-3M melanoma,> 100 µM
same,TGI,OVCAR-3 ovarian,> 100 µM
same,TGI,SW-620 colon,> 100 µM
same,TGI,NCI/ADR-RES ovarian,> 100 µM
same,TGI,CCRF-CEM leukemia,> 100 µM
same,TGI,OVCAR-4 ovarian,> 100 µM
same,TGI,SK-MEL-5 melanoma,> 100 µM
same,TGI,UACC-257 melanoma,> 100 µM
same,TGI,HT29 colon,> 100 µM
same,TGI,U251 CNS,> 100 µM
same,TGI,UACC-62 melanoma,> 100 µM
same,TGI,CAKI-1 renal,> 100 µM
same,TGI,ACHN renal,> 100 µM
same,TGI,RPMI-8226 leukemia,> 100 µM
same,TGI,HOP-62 NSCLC,> 100 µM
same,TGI,PC-3 prostate,> 100 µM
same,TGI,LOX IMVI melanoma,> 100 µM
same,TGI,HCT-116 colon,> 100 µM
same,TGI,NCI-H460 lung,> 100 µM
same,TGI,HOP-92 NSCLC,> 100 µM
same,TGI,SNB-19 CNS,> 100 µM
same,TGI,SN12C renal,> 100 µM
same,TGI,SR leukemia,> 100 µM
same,TGI,KM12 colon,> 100 µM
same,TGI,SK-OV-3 ovarian,> 100 µM
same,TGI,HS 578T breast,> 100 µM
same,TGI,SF-295 CNS,> 100 µM
same,TGI,HCT-15 colon,> 100 µM
same,TGI,RXF 393 renal,> 100 µM
same,TGI,MDA-N,> 100 µM
same,TGI,NCI-H23 lung,> 100 µM
same,TGI,MDA-MB-435,> 100 µM
same,TGI,SK-MEL-28 melanoma,> 100 µM
same,TGI,TK-10 renal,> 100 µM
same,TGI,OVCAR-5 ovarian,> 100 µM
same,TGI,K-562 leukemia,> 100 µM
same,TGI,UO-31 renal,> 100 µM
same,TGI,EKVX NSCLC,> 100 µM
same,TGI,NCI-H522 lung,87.5 µM
same,TGI,COLO 205 colon,> 100 µM
same,TGI,HL-60(TB) leukemia,48.3 µM
same,TGI,MCF7 breast,> 100 µM
same,TGI,IGROV1 ovarian,> 100 µM
same,TGI,SF-539 CNS,> 100 µM
same,TGI,SK-MEL-2 melanoma,> 100 µM
same,TGI,A498 renal,> 100 µM
same,TGI,DU-145 prostate,> 100 µM
